Laboratory results reported in ChEMBL document CHEMBL1124998, “3-(2-carboxyindol-3-yl)propionic acid derivatives: antagonists of the strychnine-insensitive glycine receptor associated with the N-methyl-D-aspartate receptor complex” (J Med Chem, 1990).

Columns and labels:
[1] = target: Glutamate NMDA receptor (Rattus norvegicus) (UniProt P35439+Q00959+Q00960+Q00961+Q62645+Q8VHN2+Q9R1M7); assay: Selectivity ratio for CPP and gly NMDA binding; type: protein-complex assay
Glutamate NMDA receptor [2] = assay: Activity against rat cortical and hippocampal membrane N-methyl-D-aspartate glutamate receptor 1/2A/2B/2C/2D using [3H]CPP; type: tissue-based, Hippocampus
Glutamate NMDA receptor [3] = assay: Activity against rat cortical and hippocampal membrane strychnine-insensitive N-methyl-D-aspartate glutamate receptor 1 using [3H]-gly; type: tissue-based, Hippocampus
Rattus norvegicus = species on record: Rattus norvegicus; assay: Activity was determined by inhibition of glutamate stimulated accumulation of cyclic GMP in neonatal rat cerebral slices.; type: functional

SMILES	Ratio [1]	IC50 (Glutamate NMDA receptor [2])	IC50 (Glutamate NMDA receptor [3])	IC50 (Rattus norvegicus)
O=C(O)c1cc(O)c2c(Cl)cc(Cl)cc2n1	150	12 µM	0.08 µM	2.5 µM
O=C(O)c1cc(=O)c2ccccc2[nH]1 [TRANSTORINE]				167 µM
O=C(O)CCc1c(C(=O)O)[nH]c2c(Cl)cccc12	> 1	> 100 µM	90 µM	
O=C(O)CCc1c(C(=O)O)[nH]c2ccccc12	1	34 µM	30 µM	
O=C(O)c1cc(O)c2ccc(Cl)cc2n1 [7-CHLOROKYNURENIC ACID]	405	162 µM	0.4 µM	8 µM
O=C(O)CCc1c(C(=O)O)[nH]c2ccc(Cl)cc12	1.8	25 µM	14 µM	

Other lines, results leading:

Ratio [1]	IC50 (Glutamate NMDA receptor [2])	IC50 (Glutamate NMDA receptor [3])	IC50 (Rattus norvegicus)	SMILES
> 150	> 1000 µM	6 µM		O=C(O)c1cc2c(Cl)cc(Cl)cc2[nH]1
10	59 µM	6 µM		O=C(O)CCc1c(C(=O)O)[nH]c2cccc(Cl)c12
105	283 µM	2.7 µM		O=C(O)CCc1c(C(=O)O)[nH]c2cc(Cl)ccc12
40	4200 µM	106 µM		O=C(O)c1cc2ccccc2[nH]1 [INDOLE-2-CARBOXYLIC ACID]
2550	358 µM	0.14 µM	5 µM	O=C(O)CCc1c(C(=O)O)[nH]c2cc(Cl)cc(Cl)c12
